What was measured:
HL-60 [1] = test: Antiproliferative activity against human HL60 cells after 48 hrs by MTS assay; format: functional, cell-based; settings: HL-60, 48 h
A549 = test: Antiproliferative activity against human A549 cells after 48 hrs by MTS assay; format: functional, cell-based; settings: A549, 48 h
NCI-H1299 = test: Antiproliferative activity against human NCI-H1299 cells after 48 hrs by MTS assay; format: functional, cell-based; settings: NCI-H1299, 48 h
Dihydrofolate reductase = target: T1, Dihydrofolate reductase (Homo sapiens, UniProt P00374); test: Inhibition of recombinant human DHFR using dihydrofolate as substrate after 15 mins in presence of NADPH
T1 sequence (P00374 whole entry): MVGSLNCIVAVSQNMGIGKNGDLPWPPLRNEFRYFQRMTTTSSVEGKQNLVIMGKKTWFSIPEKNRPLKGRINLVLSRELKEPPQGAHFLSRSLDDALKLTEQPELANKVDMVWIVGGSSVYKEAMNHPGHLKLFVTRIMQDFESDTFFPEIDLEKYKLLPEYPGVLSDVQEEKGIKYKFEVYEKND

HeLa = test: cells; settings: Homo sapiens, 48 h
Description: Antiproliferative activity against human HeLa cells after 48 hrs by MTS assay

HL-60 [2] = test: Cell cycle arrest in human HL60 cells assessed as G1 phase at 0.05 uM after 24 hrs by propidium iodide staining based flow cytometry (reference value: 29.1 +/- 0.5%); format: functional
HL-60 [3] = test: Cell cycle arrest in human HL60 cells assessed as G1 phase at 0.1 uM after 24 hrs by propidium iodide staining based flow cytometry (reference value: 29.1 +/- 0.5%); format: functional
HL-60 [4] = test: Cell cycle arrest in human HL60 cells assessed as G1 phase at 0.2 uM after 24 hrs by propidium iodide staining based flow cytometry (reference value: 29.1 +/- 0.5%); format: functional
HL-60 [5] = test: Cell cycle arrest in human HL60 cells assessed as G1 phase at 0.4 uM after 24 hrs by propidium iodide staining based flow cytometry (reference value: 29.1 +/- 0.5%); format: functional
HL-60 [6] = test: Cell cycle arrest in human HL60 cells assessed as G1 phase at 0.8 uM after 24 hrs by propidium iodide staining based flow cytometry (reference value: 29.1 +/- 0.5%); format: functional
HL-60 [7] = test: Cell cycle arrest in human HL60 cells assessed as S phase at 0.05 uM after 24 hrs by propidium iodide staining based flow cytometry (reference value: 58.7 +/- 0.8%); format: functional
HL-60 [8] = test: Cell cycle arrest in human HL60 cells assessed as S phase at 0.1 uM after 24 hrs by propidium iodide staining based flow cytometry (reference value: 58.7 +/- 0.8%); format: functional
HL-60 [9] = test: Cell cycle arrest in human HL60 cells assessed as S phase at 0.2 uM after 24 hrs by propidium iodide staining based flow cytometry (reference value: 58.7 +/- 0.8%); format: functional
HL-60 [10] = test: Cell cycle arrest in human HL60 cells assessed as S phase at 0.4 uM after 24 hrs by propidium iodide staining based flow cytometry (reference value: 58.7 +/- 0.8%); format: functional
HL-60 [11] = test: Cell cycle arrest in human HL60 cells assessed as S phase at 0.8 uM after 24 hrs by propidium iodide staining based flow cytometry (reference value: 58.7 +/- 0.8%); format: functional
HL-60 [12] = test: Cell cycle arrest in human HL60 cells assessed as G2/M phase at 0.05 uM after 24 hrs by propidium iodide staining based flow cytometry (reference value: 12.2 +/- 1.1%); format: functional
HL-60 [13] = test: Cell cycle arrest in human HL60 cells assessed as G2/M phase at 0.1 uM after 24 hrs by propidium iodide staining based flow cytometry (reference value: 12.2 +/- 1.1%); format: functional
HL-60 [14] = test: Cell cycle arrest in human HL60 cells assessed as G2/M phase at 0.2 uM after 24 hrs by propidium iodide staining based flow cytometry (reference value: 12.2 +/- 1.1%); format: functional
HL-60 [15] = test: Cell cycle arrest in human HL60 cells assessed as G2/M phase at 0.4 uM after 24 hrs by propidium iodide staining based flow cytometry (reference value: 12.2 +/- 1.1%); format: functional
HL-60 [16] = test: Cell cycle arrest in human HL60 cells assessed as G2/M phase at 0.8 uM after 24 hrs by propidium iodide staining based flow cytometry (reference value: 12.2 +/- 1.1%); format: functional

Row | Structure (SMILES) | IC50 (HL-60 [1]) [µM] | IC50 (A549) [µM] | IC50 (NCI-H1299) [µM] | IC50 (Dihydrofolate reductase) [µM] | IC50 (HeLa) [µM] | further results
1 | Nc1nc(N)c2nc(CCc3ccc(Br)cc3)ccc2n1 | 0.12 | 22.6 | 1.49 | 1.26 | 4.3 | –
2 | COc1cccc(CCc2ccc3nc(N)nc(N)c3n2)c1 | 0.42 | 14.4 | 7.03 | 0.45 | 14.3 | –
3 | Nc1nc(N)c2nc(/C=C/c3ccc(Cl)cc3)ccc2n1 | 3.8 | 8.17 | 9.39 | 16.9 | 7.6 | –
4 | Nc1nc(N)c2nc(CCc3ccccc3)ccc2n1 | 0.36 | 9.78 | 9.16 | 2.25 | 8.61 | –
5 | Nc1nc(N)c2nc(/C=C/c3ccccc3)ccc2n1 | 3.85 | 13.9 | 15.2 | 5.33 | 13.4 | –
6 | CC(C)c1ccc(CCc2ccc3nc(N)nc(N)c3n2)cc1 | 0.49 | 15.9 | – | 19 | 14 | –
7 | Nc1nc(N)c2nc(/C=C/c3ccc(Br)cc3)ccc2n1 | 2.51 | 11.9 | 6.19 | 14.8 | 9.2 | –
8 | COc1cc(CCc2ccc3nc(N)nc(N)c3n2)cc(OC)c1OC | 0.42 | 11.6 | 2.17 | 0.29 | 2.9 | Activity (HL-60 [2]): 26.3%; Activity (HL-60 [3]): 25.7%; Activity (HL-60 [4]): 20.2%; Activity (HL-60 [5]): 18%; Activity (HL-60 [6]): 10%; Activity (HL-60 [7]): 63%; Activity (HL-60 [8]): 64.3%; Activity (HL-60 [9]): 73.2%; Activity (HL-60 [10]): 77.6%; Activity (HL-60 [11]): 88.5%; Activity (HL-60 [12]): 10.7%; Activity (HL-60 [13]): 10%; Activity (HL-60 [14]): 6.6%; Activity (HL-60 [15]): 4.4%; Activity (HL-60 [16]): 1.5%
9 | COc1ccccc1/C=C/c1ccc2nc(N)nc(N)c2n1 | 3.6 | 7.56 | 8.63 | 3.61 | 13.8 | –
10 | CCc1ccc(/C=C/c2ccc3nc(N)nc(N)c3n2)cc1 | 1.19 | 9.13 | 4.86 | 5.28 | 9.86 | –
11 | Cc1ccc(CCc2ccc3nc(N)nc(N)c3n2)cc1 | 0.31 | 34.1 | 1.61 | 2.55 | 52.4 | –
12 | Nc1nc(N)c2nc(CCc3ccc(Cl)cc3)ccc2n1 | 0.27 | 16.3 | 1.06 | 2.84 | 5.3 | –
13 | Nc1nc(N)c2nc(/C=C/c3ccc(F)cc3)ccc2n1 | 2.61 | 6.78 | 5.99 | 4.78 | 7.98 | –
14 | COc1cc(/C=C/c2ccc3nc(N)nc(N)c3n2)cc(OC)c1OC | 2.33 | 5.34 | 3.99 | 4 | 2.1 | –
15 | COc1ccc(CCc2ccc3nc(N)nc(N)c3n2)cc1 | 0.072 | 18 | 2.15 | 0.71 | 10.5 | –
16 | Cc1ccc(/C=C/c2ccc3nc(N)nc(N)c3n2)cc1 | 4.54 | 18.9 | – | 3.19 | 14.5 | –
17 | COc1cccc(/C=C/c2ccc3nc(N)nc(N)c3n2)c1 | 2.03 | 9.1 | 12.2 | 4.13 | 18.8 | –
18 | Nc1nc(N)c2nc(CCc3ccc(F)cc3)ccc2n1 | 0.58 | 4.98 | 14.8 | 0.95 | 54 | –
19 | COc1ccc(/C=C/c2ccc3nc(N)nc(N)c3n2)cc1 | 1.63 | 5.68 | 3.73 | 4.34 | 6.5 | –
20 | COc1ccccc1CCc1ccc2nc(N)nc(N)c2n1 | 0.8 | 29.9 | 4.73 | 1.67 | 10.4 | –
21 | CC(C)c1ccc(/C=C/c2ccc3nc(N)nc(N)c3n2)cc1 | 1.04 | 10.7 | 11.2 | 20.1 | 10.5 | –
22 | CCc1ccc(CCc2ccc3nc(N)nc(N)c3n2)cc1 | 0.21 | 15.4 | 2.76 | 2.48 | 49.4 | –
23 | O=c1[nH]cc(F)c(=O)[nH]1 [FLUOROURACIL] | 1.62 | – | 8.91 | – | 62.2 | –
